Data reported in patent EP0503537B1, “6,9 Bis(substituted-amino)benzo-[g]isoquinoline-5,10-diones” (THE UNIVERSITY OF VERMONT, priority 1991, dated 1992).
Values after ≈ are worked out from the molar mass of the structure shown. Values joined by “and” are separate entries in the source; they are usually repeats but may differ in a detail not shown here. Equal values may be shown once.

Legend:
[1] = test system: L1210 Murine leukemia cells; experiment: In vitro growth inhibition of L1210 murine leukemia cells (Coulter Counter); type: cell-based; conditions: Mus musculus, 72 hours of continuous exposure
Experimental: The "in vitro" cytotoxic evaluation was also performed on L 1210 murine leukemia cells using the above mentioned cells maintained in suspension cultures (McCoy's 5A medium supplemented with 10% horse serum, glutamine, penicillin and streptomycin) grown in an humidified environment of 10% carbon dioxide and 90% air at 37°C. The compounds were dissolved in dimethylsulfoxide (DMSO) and added to the suspended cells in appropriate concentrations. After 72 hours of continuous exposure, the cell concentration was counted using a Coulter Counter and growth inhibition calculated using the formula: % growth inhibition = 1 - [cell number treated/cell number DMSO alone] x 100. [formula]
The IC50 was calculated from the growth inhibition data and they are reported in table VII in comparison to the prior art compound 5a (see table I for structure of 5a).
L1210 Murine leukemia cells were routinely maintained in suspension cultures in McCoy's 5A medium supplemented with 10% horse serum glutamine, penicillin and streptomycin and grown in a humidified environment of 10% carbon dioxide and 90% air at 37°C.
To assess the in vitro toxicity, each compound was dissolved in dimethylsulfoxide and added to 1 ml of L1210 cells (10^5 cells/tube) to attain final concentrations of 0.01, 0.1 and 1 µg of drug/ml of culture. After 72 hours of continues exposure to the drug, the cell concentration was determined with a Coulter Counter. Growth inhibition was calculated for each drug using the following formula: % growth inhibition = 1-[cell number treated/cell number DMSO alone] x 100. [formula]
The growth inhibition data was then used to calculate the IC50 value (the calculated drug concentration required to inhibit cell growth by 50% of control.

[2] = test system: human colon adenocarcinoma cell line (Lovo); experiment: MTT cytotoxicity assay on human colon adenocarcinoma Lovo cells; type: cell-based; conditions: 144 h, read-out: IC50 µg/ml±S.D. LoVo
Experimental: (§1) The evaluation of the "in vitro" cytotoxic activity of the compounds of the invention was performed using a human colon adenocarcinoma cell line (Lovo) isolated from a metastatic nodule and a subline with aquired resistance to a number of antitumor agents, among which doxorubicin, VP-16 and vincristine. […] The compounds were tested according to the MTT assay (Mosman, T., "Rapid Colorimetric assay for cellular growth and survival: application to proliferation and cytotoxicity assay", J. Immunol. Methods, (1983), 65, 55-63; Green, L.M., "Rapid colorimetric assay for cell viability; application to the quantitation of cytotoxic and growth inhibitory lymphokines", J. Immunol. Methods, (1984), 70, 257-268) in comparison with mitoxantrone, ametantrone and doxorubicin.
(§2) In vitro biological evaluation: MTT assay on human colon adenocarcinoma Lovo cells.
(§3) The MTT assay was performed according to Mosmann, T., J. Immunol. Methods, (1983), 65, 55-63 and Green, L. M., J. Immunol. Methods, (1984), 70, 257-268.
(§4) Immediately before use, compounds and reference standards are dissolved in proper solvent and subsequently further diluted in complete culture medium. Human colon adenocarcinoma cells Lovo and the subline resistant to doxorubicin (Lovo/DX) (2.5. 10^4 cells/ml) are plated in 96-well plates and preincubated for 24 hours in culture medium. After this time, the cells are exposed to drugs for 144 hours, then the thiazolyl blue tetrazolium bromide solution (MTT solution) is added and the cells are reincubated for 4 hours. The supernatant is removed and 150 µl of dimethylsulfoxide are added to solubilize formazan crystals. The plate is read at 570 nm with microplate reader and the inhibiting concentration of 50% cellular growth (IC50; µg/ml) is calculated.

P388 Murine Leukemia [3] = experiment: In vivo ascitic P388 murine leukemia (ip/ip, d 1, 5, 9); design: species or system CDF1 mice; conditions: for % T/C (range): median survival time; for TOX: toxic deaths/total No. of mice
Experimental: Treatment was initiated approximately 24 hours after tumor transplantation and dosages of the drug were administered ip (P388 ip/ip) or iv (P388 iv/iv) according to preestablished protocols, usually at 3-day (P388 iv/iv) or 4-day (P388 ip/ip) intervals. The studies were done over a 60-day period and the date of death for each animal was recorded. The % T/C was determined using the mean survival time (MST) for each group according to the formula % T/C = [(MST treated)/(MST control)] x 100 [formula]
P388 Murine Leukemia cells were maintained in vivo by serial intraperitoneal (ip) injections of 10^6 cells in DBA2 mice. For test purposes, CDF1 mice were inoculated i.p. with 10^6 P388 cells and treatment was initiated 24 hours later. The i.p dose of drug was administered on days 1, 5 and 9. Mice were observed daily for signs of toxicity and survival. The date of death was recorded for each animal that died or was sacrificed during the 60-day study. The median survival time (MST) for each treatment group was calculated and the % T/C was determined using the following formula: % T/C = [(MST treated)/(MST control)] x 100 [formula]

P388 Murine Leukemia [4] = experiment: In vivo P388 murine leukemia (iv/iv, d 1, 4, 7); conditions: for T/C% (range): median survival time; for TOX: toxic deaths/total number of mice; for LTS: tumor free at 60 days
Experimental: P388 Murine Leukemia cells were maintained in vivo by serial intraperitoneal (i.p.) injections of 10^6 cells in DBA2 mice. For test purposes, CDF1 mice were inoculated intravenously (i.v.) with 10^6 P388 cells and treatment was initiated 24 hr later. The i.v. dose of drug was administered on days 1, 4 and 7. Mice were observed daily for signs of toxicity and survival. The date of death was recorded for each animal that died or was sacrificed during the 60 day study. The median survival time (MST) for each treatment group was calculated and the % T/C was determined using the following formula: % T/C = [(MST treated)/(MST control)] x 100 [formula]

[5] = test system: murine Lewis Lung carcinoma; experiment: In vivo murine Lewis Lung carcinoma (im/iv); design: species or system C57b1/6 female mice; conditions: LEWIS LUNG im/iv 1,8,15; for T/C %: median survival time; for TOX: toxic deaths/total number of mice; for TWI %: tumor Weight Inhibition 7 days after last treatment
Experimental: (§5) These tumor models are enclosed in the panel of eight transplanted tumors used by the U.S.-NCl as screen panel for selection of clinically useful antitumor agents (R.K.Y. Zee Cheng and C.C. Cheng, "Screening and evaluation of anticancer agents", Meth. and Find. Expl. Clin. Pharmacol., (1988), 10(2), 67-101).
C57b1/6 female mice were trasplantated im (intralimbs) with 10^5 cells. […] The mean tumor weight for each treatment group was calculated according to Geran, R.I. et al., Cancer Chemother. Rep., (1972), 3, 51-61 and the TWI% was calculated 7 days after the last drug treatment using the formula: TWI% = 100-[(Mean tumor weight of treated mice)/(mean tumor weight of controls)] x 100. [formula]

Lovo/DX = experiment: MTT cytotoxicity assay on doxorubicin-resistant subline Lovo/DX; type: cell-based, human
Experimental: as §1, §2, §3, §4

[6] = test system: human MX-1 mammary carcinoma; experiment: In vivo human MX-1 mammary carcinoma xenograft (sc/iv); conditions: MX-1 sc/iv q 7d x 3; for TWI %: CD1 nu/nu female mice; for TOX: toxic deaths/total number of mice
Text: as §5
CD1 nu/nu female mice were transplantated sc (subcutaneously) with tumor fragments (about 1 mm x 1 mm x 1 mm). Treatment was given iv once a week for three weeks, when tumor weight reached an average of 150 mg. For all individual tumors the weight change (relative tumor weight) for the start of treatment (Vo) was expressed as Vt/Vo at each day of measurement (Vt). TWI% was calculated 7 days after the last drug treatment using the formula: TWI% = 100-[(mean relative tumor weight of treated mice)/(mean relative tumor weight of controls)] x 100. [formula]

L1210 murine leukemia = experiment: In vivo L1210 murine leukemia (ip/ip, d 1, 5, 9), protocol a, 10^6 cells; design: species or system BDF1 mice; conditions: days 1, 5 and 9, ip; for %T/C: mean survival time; for LTS: tumor-free at 60 days
Experimental: L 1210 leukemia cells were intraperitoneally (ip) injected in CDFl mice and treatment was initiated approximately 24 hours after tumor transplantation. Dosages of the drugs were administered ip according to preestablished protocols, usually at 4-day intervals. The studies were done over a 60-day period and the date of death for each animal was recorded. The % T/C was determined using the mean survival time (MST) for each group according to the formula % T/C = [(MST treated)/(MST control)] x 100 [formula]
• a) L1210 murine leukemia cells were maintained in vivo by weekly intraperitoneal (ip) injections of 10^6 cells in BDF1 mice. For test purposes, mice were inoculated i.p. with 10^6 L1210 cells and treatment was initiated 24 hours later. The desired dose of drug was administered on days 1, 5 and 9. Mice were observed daily for signs of toxicity and survival. The date of death was recorded for each animal that died or was sacrificed during the 60-day study. The mean survival time (MST) for each treatment group was calculated and the % T/C was determined using the following formula: % T/C = [(MST treated)/(MST control)] x 100 [formula] The results are reported in table X • b) L1210 murine leukemia cells were maintained in vivo by weekly intraperitoneal (ip) injections of 10^5 cells in DBA2 mice. For test purposes, CDF1 mice were inoculated i.p. with 10^5 L1210 cells and treatment was initiated 24 hours later. The desired dose of drug was administered on days 1, 5 and 9. Mice were observed daily for signs of toxicity and survival. The date of death was recorded for each animal that died or was sacrificed during the 60-day study. The median survival time (MST) for each treatment group was calculated and the % T/C was determined using the following formula: % T/C = [(MST treated)/(MST control)] x 100 [formula]

O=C1c2ccncc2C(=O)c2c(NCCN3CC3)ccc(NCCN3CC3)c21 [Compound 10f, 6,9-Bis{[2-(1'-aziridino)ethyl]amino}benzo[g]isoquinoline-5,10-dione]
IC50 [1]: 0.002 µg/mL (≈ 5.3 nM)

NCCNc1ccc(NCCN)c2c1C(=O)c1ccncc1C2=O.O=C(O)/C=C\C(=O)O.O=C(O)/C=C\C(=O)O [Compound 10i.maleate, 6,9-bis{[2-(amino)ethyl]amino}benzo[g]isoquinoline-5,10-dione dimaleate]
IC50 [2]: 0.21 ± 0.08 µg/mL | LTS (day 60) (P388 Murine Leukemia [3]; 25 mg/kg/day ip days 1,5,9): 0/8 | % T/C (range) (P388 Murine Leukemia [3]; 25 mg/kg/day ip days 1,5,9): 185% | TOX (P388 Murine Leukemia [3]; 25 mg/kg/day ip days 1,5,9): 0/8 | LTS (day 60) (P388 Murine Leukemia [3]; 37.5 mg/kg/day ip days 1,5,9): 1/8 | % T/C (range) (P388 Murine Leukemia [3]; 37.5 mg/kg/day ip days 1,5,9): 260% | TOX (P388 Murine Leukemia [3]; 37.5 mg/kg/day ip days 1,5,9): 1/8 | T/C% (range) (P388 Murine Leukemia [4]; 18 mg/kg/day iv days 1,4,7, dimaleate): 200% and 188% | TOX (P388 Murine Leukemia [4]; 18 mg/kg/day iv days 1,4,7): 0/16 | LTS (P388 Murine Leukemia [4]; 18 mg/kg/day iv days 1,4,7): 0/16 | T/C% (range) (P388 Murine Leukemia [4]; 27 mg/kg/day iv days 1,4,7): 203(181-227) % | TOX (P388 Murine Leukemia [4]; 27 mg/kg/day iv days 1,4,7): 2/32 | LTS (P388 Murine Leukemia [4]; 27 mg/kg/day iv days 1,4,7): 0/32 | T/C % ([5]; 40 mg/Kg/day): 158% | TOX ([5]; 40 mg/Kg/day): 0/10 | TWI % ([5]; 40 mg/Kg/day): 80% | T/C % ([5]; 60 mg/Kg/day): 182% | TOX ([5]; 60 mg/Kg/day): 1/10 | TWI % ([5]; 60 mg/Kg/day): 95% | IC50 (Lovo/DX; Homo sapiens, LoVo/DX, MTT assay, 144 hrs drug exposure, read-out: IC50 µg/ml±S.D. LoVo/Dx): 6.7 ± 1.8 µg/mL | R.I. (Lovo/DX; R.I. = (IC50 LoVo/Dx)/(IC50 LoVo)): 31.8 | TWI % ([6]; 17 mg/Kg/day): 65% | TOX ([6]; 17 mg/Kg/day): 0/7 | TWI % ([6]; 26.6 mg/Kg/day): 58% | TOX ([6]; 26.6 mg/Kg/day): 0/7 | TWI % ([6]; 40 mg/Kg/day): 64% | TOX ([6]; 40 mg/Kg/day): 1/5

O=C1c2ccncc2C(=O)c2c(NCCNCCO)ccc(NCCNCCO)c21 [Compound 10l.maleate, 6,9-bis{[2-(2-hydroxyethylamino)ethyl]amino}benzo[g]isoquinoline-5,10-dione]
%T/C (L1210 murine leukemia; Dose 12.5 mg/kg): 313% | LTS (L1210 murine leukemia; Dose 12.5 mg/kg): 2/6 | %T/C (L1210 murine leukemia; Dose 25 mg/kg): 415% | LTS (L1210 murine leukemia; Dose 25 mg/kg): 1/6 | IC50 [1]: 0.06 µg/mL
